The results in this text go back to US20110034472A1, “Novel Compounds for Treatment of Cancer and Disorders Associated With Angiogenesis Function” (UNIVERSITY OF SOUTHERN CALIFORNIA, priority 2004, published 2011).

In the first series the test system is HEY ovarian cancer cells. Description: MTT cytotoxicity assay, HEY. Type of series: cell-based, human. As to conditions: HEY ovarian cancer cells; read-out: 50% Cytotoxic concentration (IC50). On the procedure: The sensitivity of a panel of seven human cancer cell lines to SC144 was assessed by MTT-assay. […] The sensitivity towards SC144 was time- and dose-dependent.
Cytotoxicity was assessed by a 3-(4,5-dimethylthiazol-2-yl)-2,5-diphenyltetrazolium bromide assay as previously described (Carmichael et al. (1987) Cancer Res. 47:936-42). Briefly, cells were seeded in 96-well microtiter plates (PC3 and DU145 at 5,000 cells/well and LNCaP at 10,000 cells/well; breast and ovarian cells at 4,000 cells/well) and allowed to attach. Cells were subsequently treated with a continuous exposure to the corresponding drug for 72 hours. A 3-(4,5-dimethylthiazol-2-yl)-2,5-diphenyltetrazolium bromide solution (at a final concentration of 0.5 mg/mL) was added to each well and cells were incubated for 4 hours at 37° C. After removal of the medium, DMSO was added and the absorbance was read at 570 nm. All assays were done in triplicate. The IC50 was then determined for each drug from a plot of log(drug concentration) versus percentage of cell kill.
In general terms: Tetrazolium assays rely on reduction of a dye to a coloured formazan, in cell work by metabolically active cells.
Regarding `CCn1c(=O)c(C(=O)NNC(=O)c2ccccc2[N+](=O)[O-])c(O)c2ccccc21` [SC214], the IC50 is 1 µM.

In the case of `CCCn1c(=O)c(C(=O)NNC(=O)c2ccc(C)cc2)c(O)c2ccccc21` [SC206], the IC50 was 1 µM.

With `Cc1ccc(-n2c(SCC(=O)NNC(=O)c3ccccc3O)nnc2-c2ccccc2O)cc1` [SC245], the IC50 worked out at 1 µM.

In the case of `CSc1nc(NNC(=O)c2ccco2)c2c3c(sc2n1)COC(C)(C)C3` [SC212], the IC50 amounted to 1 µM.

Regarding `COCc1c(C(=O)NNC(=O)c2ccccc2F)nnn1-c1nonc1N` [SC204], the IC50 was 1 µM.

For the compound `O=C(CSc1nnc(-c2ccccc2O)n1Cc1ccccc1)NNC(=O)c1ccccc1O` [SC246], the IC50 came out at 1 µM.

As for `CCCn1c(=O)c(C(=O)NNC(=O)CC(=O)OCC)c(O)c2ccccc21` [SC202], the IC50 came to 1 µM.

Regarding `O=C(COc1ccc2ccccc2c1)NNC(=O)c1cc2ccccc2cc1O` [SC210], the IC50 amounted to 1 µM.

The series is the same for the next values; noted with them: Homo sapiens, read-out: 50% Cytotoxic concentration (IC50).
With `Cc1cccc(C(O)(C(=O)NNC(=O)/C(O)=C/C(=O)c2ccccc2)c2cccc(C)c2)c1` [SC230], the IC50 was 3 µM.

The series is the same for the next values; noted with them: Homo sapiens; HEY ovarian cancer cells; read-out: 50% Cytotoxic concentration (IC50).
In the case of `O=C(Cc1ccccc1)NNC(=O)c1c(O)c2ccccc2[nH]c1=O` [SC277], the IC50 was 14 µM.

As to `O=C(CCl)NNc1nc(-c2ccccc2)c2cc(Cl)ccc2n1` [SC280], the IC50 stood at 6 µM.

For `COc1ccccc1C(=O)NNC(=O)c1cc2ccccc2cc1O` [SC274], the IC50 turned out to be 11 µM.

With `Cc1cccc(C(=O)NNC(=O)CSc2nc3ccccc3cc2C)c1` [SC213], the IC50 was determined as 12 µM.

In the case of `Cc1cccc(C(=O)NNC(=O)CSc2nc(-c3ccccc3)nc3ccc(F)cc23)c1` [SC234], the IC50 was found to be 8 µM.

In the case of `O=C(CSc1nnc(Cc2ccccc2)n1-c1cccc(Cl)c1)NNC(=O)c1ccccc1O` [SC248], the IC50 is 2 µM.

With `Cc1cc(C)cc(OCC(=O)NNC(=O)c2cc3ccccc3oc2=O)c1` [SC215], the IC50 was 12 µM.

With `O=C(NNC(=O)c1cc2ccccc2oc1=O)c1ccncc1` [SC266], the IC50 turned out to be 7 µM.

For `O=C(CSC1=NNC2C3=C(N=C(C4CC4)N12)S1=C(CCCC1)C3)NNC(=O)C1C=CC=CO1` (centres unmarked) [SC244], the IC50 is 15 µM.

As for `CCCCCCCCC(=O)NNC(=O)c1c(O)c2ccccc2n(C)c1=O` [SC233], the IC50 is 5 µM.

Turning to `O=C(NNC(=O)c1cccs1)c1ccco1` [SC251], the IC50 amounted to 15 µM.

On to `O=C(/C=C/NNC(=O)c1ccccc1O)c1ccccc1` [SC258], for which the IC50 amounted to 2 µM.

Consider `CCn1c(=O)c(C(=O)NNC(=O)c2ccc(C)cc2)c(O)c2ccccc21` [SC205], for which the IC50 was found to be 6 µM.

In the case of `O=C(COc1ccc2ccccc2c1)NNC(=O)c1ccccc1O` [SC271], the IC50 was determined as 6 µM.

`Cc1ccc(C(=O)n2nnc3c(NNC(=O)COc4ccc(F)cc4)nc(C4CC4)nc32)cc1` [SC243]: the IC50 came to 6 µM.

Take `O=C(NNC(=O)c1c(O)c2ccccc2[nH]c1=O)c1ccccc1` [SC268]: the IC50 is 10 µM.

Consider `CCCCCCC(=O)NNC(=O)c1c(O)c2ccccc2n(CCC)c1=O` [SC235], for which the IC50 came out at 7 µM.

Take `CCn1c(=O)c(C(=O)NNC(=O)c2ccccc2F)c(O)c2ccccc21` [SC225]: the IC50 came to 2 µM.

As for `COc1ccc(C(=O)NNC(=O)c2cc3ccccc3oc2=O)cc1OC` [SC223], the IC50 was found to be 4 µM.

For the compound `COc1ccc2nc(C)cc(SCC(=O)NNC(=O)COc3cccc4ccccc34)c2c1` [SC242], the IC50 was determined as 5 µM.

With `Cc1ccc(-n2c(SCC(=O)NNC(=O)c3ccccc3O)nnc2-c2ccccc2)cc1` [SC240], the IC50 was 5 µM.

For the compound `COc1ccccc1C(=O)NNC(=O)c1ccc2ccccc2c1O` [SC273], the IC50 was 11 µM.

Take `O=C(CSc1nc(C2CC2)nc2sc3c(c12)CCCC3)NNC(=O)c1ccco1` [SC224]: the IC50 was 4 µM.

Take `O=C(NNC(=O)c1cc2ccccc2oc1=O)c1ccc(S(=O)(=O)N2CCCCC2)cc1` [SC238]: the IC50 was 3 µM.

For `Cc1ccc(-n2c(SCC(=O)NNC(=O)Cc3ccccc3)nc3sc4c(c3c2=O)CCCC4)cc1` [SC249], the IC50 was 2 µM.

Turning to `O=C(CSc1nc2ccccc2cc1Cc1ccccc1)NNC(=O)c1ccco1` [SC222], the IC50 was 8 µM.

Take `CCCCCCCCCC(=O)NNC(=O)c1c(O)c2ccccc2[nH]c1=O` [SC237]: the IC50 was 7 µM.

As to `O=C(O)/C=C/C(=O)NNC(=O)c1cc(-c2ccccc2)[nH]n1` [SC263], the IC50 came out at 5 µM.

Consider `COc1ccc(C(=O)NNC(=O)c2ccc3ccccc3c2O)cc1` [SC275], for which the IC50 was 12 µM.

Consider `O=C(NNC1=NS(=O)(=O)c2ccccc21)c1ccncc1` [SC265], for which the IC50 is 5 µM.

Regarding `COc1ccccc1C(=O)NNC(=O)c1ccccc1O` [SC260], the IC50 is 10 µM.

Take `COc1cccc(C(=O)NNC(=O)c2ccc3ccccc3c2O)c1` [SC272]: the IC50 came out at 7 µM.

Take `CCn1c(NNC=O)nc2c1c(=O)[nH]c(=O)n2C` [SC253]: the IC50 is 12 µM.

For `CCn1c(=O)c(C(=O)NNC(=O)c2cccc(C)c2)c(O)c2ccccc21` [SC207], the IC50 amounted to 6 µM.

Consider `CCCCCCCC(=O)NNC(=O)c1c(O)c2ccccc2n(CC)c1=O` [SC231], for which the IC50 was found to be 3 µM.

In the case of `CCn1c(=O)c(C(=O)NNC(=O)c2cccc([N+](=O)[O-])c2)c(O)c2ccccc21` [SC218], the IC50 was found to be 4 µM.

Turning to `Cc1ccc(C(=O)NNC(=O)CSc2nnc3c4c5c(sc4nc(C4CC4)n23)CCCC5)cc1` [SC250], the IC50 amounted to 2 µM.

As for `O=C(NNC(=O)c1c(O)c2ccccc2[nH]c1=O)c1cccc([N+](=O)[O-])c1` [SC221], the IC50 stood at 4 µM.

Consider `O=C(NNC(=O)c1cccs1)c1ccccn1` [SC252], for which the IC50 is 16 µM.

As to `CCCn1c(=O)c(C(=O)NNC(=O)c2ccccc2)c(O)c2ccccc21` [SC201], the IC50 worked out at 2 µM.

In the case of `COc1ccc(C(=O)NNC(=O)CSc2ncnc3sc4c(c23)CCCC4)cc1` [SC226], the IC50 was determined as 5 µM.

Turning to `O=C(NNC(=O)c1cccs1)c1ccc2ccccc2c1` [SC262], the IC50 was found to be 11 µM.

Turning to `CCC(=O)NNc1nc2c(c(=O)n1Cc1ccccc1)C1(CCCC1)Cc1ccccc1-2` [SC228], the IC50 is 6 µM.

Take `O=C(NNC(=O)c1cccc2ccccc12)c1cccs1` [SC261]: the IC50 was 11 µM.

As to `CC1=C(C)C2c3nnc(SCC(=O)NNC(=O)c4ccco4)n3C=NC2S1` (centres unmarked) [SC220], the IC50 was found to be 4 µM.

For `O=C(NNC1=CS(=O)(=O)c2ccccc21)c1ccccc1` [SC264], the IC50 turned out to be 5 µM.

In the case of `Cc1ccc(C(=O)NNC(=O)c2c(O)c3ccccc3[nH]c2=O)cc1` [SC278], the IC50 worked out at 13 µM.

On to `COc1ccc(C(=O)NNC(=O)c2cc3ccccc3cc2O)cc1` [SC276], for which the IC50 is 13 µM.

On to `Cc1occc1C(=O)NNC(=O)c1ccccc1F` [SC254], for which the IC50 is 17 µM.

`C=C(C)CNC(=S)NNC(=O)CCn1c2ccccc2c2ccccc21` [SC217]: the IC50 came out at 4 µM.

Regarding `CC1=C(C)C2c3nnc(SCC(=O)NNC(=O)c4ccco4)n3C(C(C)C)=NC2S1` (centres unmarked) [SC232], the IC50 amounted to 6 µM.

On to `O=C(CSc1nnc2c3c4c(sc3ncn12)CCCC4)NNC(=O)c1ccco1` [SC247], for which the IC50 is 14 µM.

In the case of `O=C(O)CCCC(=O)NNC(=O)c1ccccc1Cl` [SC259], the IC50 was 18 µM.

With `CCn1c(=O)c(C(=O)NNC(=O)Cc2ccccc2)c(O)c2ccccc21` [SC203], the IC50 is 6 µM.

Regarding `CCn1c(=O)c(C(=O)NNC(=O)c2ccc([N+](=O)[O-])cc2)c(O)c2ccccc21` [SC216], the IC50 stood at 5 µM.

Take `O=C(NNC(=O)c1cccs1)c1ccc(O)c(O)c1` [SC257]: the IC50 is 2 µM.

As for `O=C(CSc1nnc(-c2ccccc2O)o1)NNC(=O)Cc1ccccc1` [SC208], the IC50 was determined as 4 µM.

As to `O=C(NNC(=O)c1ccccc1O)c1cccs1` [SC255], the IC50 was determined as 14 µM.

For `CC1(C)Cc2c(sc3nc(NNC(=O)c4ccccc4)[nH]c(=O)c23)CO1` [SC229], the IC50 is 8 µM.

On to `CC1CCN(S(=O)(=O)c2ccc(C(=O)NNC(=O)C3CC3)cc2)CC1` [SC209], for which the IC50 is 8 µM.

As to `O=C(NNC(=O)c1c(O)c2ccccc2[nH]c1=O)c1ccccc1[N+](=O)[O-]` [SC219], the IC50 was determined as 2 µM.

As to `CCC(=O)NNC(=O)c1c(O)c2ccccc2[nH]c1=O` [SC256], the IC50 amounted to 3 µM.

In the case of `O=C(CSc1nnc(-c2ccccc2)n1Cc1ccccc1)NNC(=O)c1ccccc1O` [SC241], the IC50 came out at 5 µM.

As to `O=C(NNC(=O)c1c(O)c2ccccc2[nH]c1=O)c1ccccc1F` [SC279], the IC50 was 6 µM.

For the compound `O=C(CSc1nc2ccccc2c(=O)n1CC1CCCO1)NNC(=O)c1ccccc1O` (centres unmarked), the IC50 turned out to be 2 µM.

On to `CCc1cc2ccc(C)cc2nc1SCC(=O)NNC(=O)c1ccco1` [SC227], for which the IC50 came out at 6 µM.

In the case of `O=C(CCc1ccccc1)NNC(=O)c1ccc2ccccc2c1O` [SC270], the IC50 is 5 µM.

On to `O=C(NNC(=O)c1cc2ccccc2oc1=O)c1ccc(S(=O)(=O)N2CCOCC2)cc1` [SC239], for which the IC50 turned out to be 3 µM.

On to `CCc1cc2ccccc2nc1SCC(=O)NNC(=O)c1ccccc1` [SC211], for which the IC50 is 10 µM.

The next series relates to MDA-MB-435 cells. Description: MTT assay, continuous drug exposure for 48 hours (Table 3). As to conditions: Homo sapiens, MDA-MB-435. Type of series: cell-based, human.
For orientation: CC50 means the concentration that lowers cell viability or growth by half. `O=C1c2c(O)ccc(O)c2C(=O)c2c(NCCNCCO)ccc(NCCNCCO)c21` [Mitoxantrone] showed a CC50 of 4.5 ± 1.4 µM.

The same series, now with this note: Homo sapiens, MDA-MB-435, read-out: CC80.
Turning to `O=C1c2c(O)ccc(O)c2C(=O)c2c(NCCNCCO)ccc(NCCNCCO)c21` [Mitoxantrone], the IC80 stood at 7.3 ± 0.35 µM.
